Measured values: US20200399329A1, “ANTIMICROBIAL PEPTIDES” (priority 2015, published 2020)
Entries after “also recorded” stand apart in the source; their conditions may differ. Where a SMILES comes first, the peptide text is derived from it.

Tests used:
GFPuv E. coli = assay: GFP leakage from lysed GFPuv E. coli; type: cell-based; conditions: 50 μM for 30 minutes
Protocol: In order to determine and evaluate the Mechanism of Action (MOA) by which the peptides achieve the remarkable antimicrobial effect they exert, the following experiments were conducted: GFPuv E. coli bacteria are a strain that upon induction expresses green fluorescent protein (GFP). The GFP fluorescence can be detected at 395/509 nm, while live bacteria can be detected via absorbance at 600 nm (OD600).
GFPuv E. coli bacteria ubiquitously express GFP in their cytoplasm upon induction and the fluorescent protein can be detected and visualized. […]
In another experiment, bacteria were grown and induced to express GFP. […] The supernatant (sup) from the two experiment groups CTRL and OMN6, was separated from the pellet and analyzed for the level of fluorescence units (FU) (see FIG. 4B). […] Fluorescence was detected only inside the bacteria which were concentrated in the pellet at the bottom of the tube. […] Both supernatants were probed for the presence of bacteria via absorbance at 600 nm and both supernatants were completely void of bacteria cells (data not shown). […] Thus, in the CTRL group, where the bacteria are intact, no fluorescence is detected in the sup while in the sup from the group treated with OMN6, the GFP that leaked out of the lysed cells is detected.

[1] = Preliminary IP safety in mice; type: in vivo
Protocol: IP administration of OMN6: OMN6 was administered IP to mice in order to evaluate and quantitate any toxic effects if present. OMN6 peptide was administered via intraperitoneal injection according to concentrations and groups detailed in Table 10.
Mice used in this experiment: Outbred Hsd: ICR (CD-1®)—weight 18-20 g. Saline solution (0.9% NaCl) supplemented with 4 mM C2H3NaO2 (sodium acetate) as sham treatment, or OMN6 dissolved in saline were administered as specified in […] A total volume of 100 μl was administered to each animal.
Mortality of mice in experiment group was monitored in comparison to a Sham (CTRL) group. Food and water consumption, post treatment, was monitored by individual weight measurements once every two days. At the end of the experiment, blood was taken from all animals, and a 200 μl volume of complete blood was separated and plasma was analyzed for erythrocyte hemolysis.
Experimental Map: • 1. Mice (six per group) were given a single-dose administration on day 1, according to group specification (Table 10). Food and water consumption (weight analysis) along with mortality of mice in all groups were monitored for 3 days post treatment. At the end of the four day trial, the animals were sacrificed. • 2. Free Hgb (hemoglobin) assay was performed on day 4, on all samples from all groups, for erythrocyte hemolysis analysis. • 3. Water/food availability, temperature and other conditions remained unchanged between the groups for the entire four day trial. • 4. The Erythrocyte hemolysis analysis was performed via hemoglobin assay kit (Sigma-Aldrich, 3 Plaut St. Rehovot, Israel).

E. coli CR BAA-2452 = type: cell-based, Escherichia coli; conditions: OMN6 12.5 μM, FIG. 6D
Protocol: In order to determine the MIC values of the peptides, growth and inhibition of various bacteria were monitored after treatment with the peptides of the invention (Table 6).
E. coli bacteria were cultured with or without OMN6 in increasing concentrations of 0.8-200 μM and with or without Fetal Bovine Serum 10% for 17-20 hours. The growth of the bacteria was continuously monitored via spectrophotometry at 600 nm. As bacterial growth progresses, OD600 nm values rise, and where the growth is inhibited OD600 nm values remain constant.
E. coli NDM1 is a Carbapenem resistant strain of bacteria. The experimental system described above was used to determine the antimicrobial effect of OMN6 on this bacteria compared to the antibiotic drug Imipenem (IPM), a member of the Carbapenem family of antibiotics. The MIC value for IPM on sensitive E. coli is 4 μg/ml, in a MIC above 8 μg/ml the bacteria is considered resistant.
The experimental system and parameters described here were used to determine the MIC values of OMN2, OMN6, OMN7 and OMN11 on various bacteria strains (Table 7 and Table 8).

[2] = IP single dose 16 mg/kg, four-day experiment

## CC[C@H](C)[C@H](NC(=O)CNC(=O)[C@H](CC(=O)O)NC(=O)[C@H](CCCNC(=N)N)NC(=O)[C@@H](NC(=O)[C@H](CC(N)=O)NC(=O)[C@H](CCC(N)=O)NC(=O)CNC(=O)[C@@H](NC(=O)[C@H](CCCCN)NC(=O)[C@H](CCC(=O)O)NC(=O)[C@@H](NC(=O)[C@H](CCCCN)NC(=O)[C@H](CCCCN)NC(=O)[C@H](Cc1ccccc1)NC(=O)[C@H](CC(C)C)NC(=O)[C@H](CCCCN)NC(=O)[C@H](Cc1c[nH]c2ccccc12)NC(=O)[C@H](CCCCN)NC(=O)[C@H](CS)NC(=O)[C@@H](N)CCSC)[C@@H](C)CC)C(C)C)[C@@H](C)CC)C(=O)N[C@H](C(=O)N[C@@H](CCCCN)C(=O)N[C@@H](C)C(=O)NCC(=O)N1CCC[C@H]1C(=O)N[C@@H](C)C(=O)N[C@H](C(=O)N[C@@H](C)C(=O)N[C@H](C(=O)N[C@H](C(=O)NCC(=O)N[C@@H](CCC(N)=O)C(=O)N[C@@H](C)C(=O)N[C@H](C(=O)N[C@@H](CCC(N)=O)C(=O)N[C@H](C(=O)N[C@@H](C)C(=O)N[C@@H](CCCCN)C(=O)N[C@@H](CS)C(N)=O)[C@@H](C)CC)[C@@H](C)O)C(C)C)C(C)C)C(C)C)[C@@H](C)CC [OMN6] (H-MCKWKLFKKIEKVGQNIRDGIIKAGPAVAVVGQATQIAKC-NH2; N-terminus and C-terminus assumed)
GFPuv E. coli
  GFP leakage / lysis of bacteria: massive leaking of GFP; also recorded: extensive lysis
[1]; IP single dose 16 mg/kg (data not shown)
  Histological analysis: No evidence of pathological changes or aberrations
[1]; IP single dose 16 mg/kg, day 4
  Hemolysis of erythrocytes (Free Hgb assay): No evidence of hemolysis
[1]; [2]
  Clinical signs (diarrhea, bloody diarrhea, stand-on-end hair, apathy or restlessness): not observed
  Mortality: not observed
  Toxic or otherwise adverse effects: does not exert any toxic or otherwise adverse effects
  Weight-loss: not observed
E. coli CR BAA-2452
  Inhibition of growth of E. coli NDM1: completely inhibited bacterial growth
